Experimental data taken from US20230226040A1, “COMBINATION THERAPY COMPRISING AN FGFR INHIBITOR AND A KRAS INHIBITOR” (Incyte Corporation, priority 2021, published 2023).

What was measured:
Format in all cases: cell-based
A427 cells = test: siRNA FGFR knockdown plus KRAS G12D inhibitor, Cell Titer Glo proliferation; conditions: FGFR1 isoform knocked down; 120 h
Experimental: To further evaluate the KRAS/FGFR combination mechanism of action, siRNA FGFR knockdown experiments were conducted in A427 cells, followed by treatment with KRAS G12D inhibitors Compound 5, Compound 6, and Compound 7. Knockdown efficiency was assessed by Western blot (FIG. 13A) and its effect was measured by cell proliferation inhibition (FIGS. 13B-G). Initially, the effect of single FGFR isoforms knockdown in combination with KRAS G12D inhibitors Compound 5 (FIG. 13B), Compound 6 (FIG. 13D) and Compound 7 (FIG. 13F) was assessed. […] In addition, combining FGFR1 knockdown with knockdown of additional FGFR isoforms further increased the effect of KRAS G12D inhibitors (FIGS. 13C, E and G)
(§1) The lyophilized siRNA pools or individuals (Dharmacon ON-TARGET plus siRNA from Horizon Discovery) were reconstituted by combining 1× siRNA buffer (200 μL) with lyophilized siRNA (20 nmol); or combining lx siRNA buffer (100 μL) with lyophilized siRNA (10 nmol). Dharmafect Reagent 1 was prepared at a 1:200 dilution in 1× siRNA buffer. One tube of diluted reagent was prepared for each siRNA dilution. To each tube, the appropriate siRNA was added to Dharmafect Reagent 1 at a 1:400 dilution. The prepared siRNA reagent (25 μL per well) was added to the appropriate number of wells on a 96-well clear bottom Greiner plate and incubated at room temperature for 30 min.
For plating in 96-well pates, 2000 A427 cells per well in 100 !IL of medium were prepared. The prepared cells (100 !IL per well) were added to each well of the 96-well plate and incubated at 48 h.
Compound plates were prepared with a compound starting concentration of 5 mM in a 3-fold dilution. Following 48 h transfection incubation, the appropriate compounds were added to the 96-well plate at a final starting concentration of 5μM in 3-fold dilution (11 point dose response curve). After addition of the compounds, the 96-well plates were incubated at 37° C. for 120 h. […] The plates were tapped gently and luminescence was read on a Pherastar microplate reader.

SW-1573 = test: 5-day Cell Titer Glo combination matrix, Bliss score; conditions: SW-1573 (Lung, Mesenchymal), 5 days
Experimental: (§2) Cells were seeded in RPMI medium with 10% HI FBS at a density of 500 cells/well in Greiner, white, clear bottom, 384-well tissue culture treated plates containing 10×10 combination matrices of compound. Plates were incubated at 37° C., 5% CO2 for 5 days. On day 5, Cell Titer Glo reagent was added to the plates and ATP luminescence was detected using a Pherastar FSX reader. The synergy score for the combination effect was calculated using a Bliss score model where the Bliss score=Yab-(Ya+Yb−(YaYb))×100, where Ya and Yb are the monotherapies. Bliss scores >20 are strongly synergistic and a higher Bliss scores indicates a higher level of synergism.
(§3) Cells were seeded in RPMI medium with 10% HI FBS at a density of 500 cells/well in Greiner, white, clear bottom, 384-well tissue culture treated plates containing 10×10 combination matrices of compound. Plates were incubated at 37° C., 5% CO2 for 5 days. On day 5, Cell Titer Glo reagent was added to the plates and ATP luminescence was detected using a Pherastar FSX reader. Synergy score for the combination effect is calculated using a Bliss score model where the Bliss score=Yab−(Ya+Yb−(YaYb))×100, where Ya and Yb are the monotherapies. Bliss scores >20 are strongly synergistic and a higher Bliss scores indicates a higher level of synergism.
(§4) Cells were seeded in RPMI medium with 10% HI FBS at a density of 500 cells/well in Greiner, white, clear bottom, 384-well tissue culture treated plates containing 10×10 combination matrices of compound. Plates were incubated at 37° C., 5% CO2 for 5 days. On day 5, Cell Titer Glo reagent was added to the plates and ATP luminescence was detected using a Pherastar FSX reader. The synergy score for the combination effect was calculated using a Bliss score model where the Bliss score=Yab−(Ya+Yb−(YaYb))×100, where Ya and Yb are the monotherapies. Bliss scores >20 are strongly synergistic and a higher Bliss scores indicates a higher level of synergism.

LU-99 = test: as above; conditions: LU-99 (Lung, Mesenchymal); FGFR inhibitor in combination with Cmpd 3; 5 days
Experimental: as §3, §4

H1792 = test: as above; conditions: H1792 (Lung, Mesenchymal), 5 days
Experimental: as §2, §3, §4

H358 = test: as above; conditions: H358 (Lung, Epithelial), 5 days
Experimental: as §2, §3, §4

SW-837 = test: as above; conditions: SW-837 (CRC, Epithelial); KRAS inhibitor in combination with pemigatinib; 5 days
Experimental: as §2, §4

Calu-1 = test: as above; conditions: Calu-1 (Lung, Mesenchymal); KRAS inhibitor in combination with pemigatinib; 5 days
Experimental: as §2

HCC-44 = test: as above; conditions: HCC-44 (Lung, Mesenchymal); KRAS inhibitor in combination with pemigatinib; 5 days
Experimental: as §2, §4

LU99 cells = test: siRNA FGFR knockdown plus KRAS G12C inhibitor, Cell Titer Glo proliferation; conditions: in the absence of FGFR1 or FGFR4; 120 h
Experimental: Knockdown efficiency was assessed by Western blot and its effect was measured by cell proliferation inhibition.
as §1, with “combining 1×” for “combining lx”, “in 1X” for “in 1×”, “([…]” for “(25 μL”
For plating in 96-well pates, 2000 LU99 cells per well in 100 μL of medium were prepared. The prepared cells (100 μL per well) were added to each well of the 96-well plate and incubated at 48 h.
Compound plates were prepared with a compound starting concentration of 5 mM in a 3-fold dilution. Following 48 h transfection incubation, the appropriate compounds were added to the 96-well plate at a final starting concentration of 5 μM in 3-fold dilution (11 point dose response curve). After addition of the compounds, the 96-well plates were incubated at 37° C. for 120 h. After this time, Cell Titer Glo reagent is reconstituted and 100 μL of reagent was added per well. The plates were tapped gently and luminescence was read on a Pherastar microplate reader.

[1] = FGFR inhibitor in combination with Cmpd 3
[2] = KRAS inhibitor in combination with pemigatinib

Row | Structure (SMILES) | inhibition of A427 cell proliferation after siRNA knockdown (A427 cells) | Avg. Bliss Score (SW-1573; [1]) | Avg. Bliss Score (LU-99) | Avg. Bliss Score (H1792; [1]) | Avg. Bliss Score (H358; [1]) | further results
1 | Cc1cc2c(-n3cncn3)nc3c(F)c(-c4cc(O)cc5ccc(F)cc45)c(CCC#N)cc3c2n1[C@H]1[C@H]2CN[C@@H]1C2 [Compound 5, 3-(1-((1R,4R,5S)-2-Azabicyclo[2.1.1]hexan-5-yl)-6-fluoro-7-(7-fluoro-3-hydroxynaphthalen-1-yl)-2-methyl-4-(1H-1,2,4-triazol-1-yl)-1H-pyrrolo[3,2-c]quinolin-8-yl)propanenitrile] | higher inhibition in proliferation compared to controls |  |  |  |  | 
2 | C=CC(=O)N1CC[C@H](n2nc(C#Cc3cc(OC)cc(OC)c3)c3c(N)ncnc32)C1 [TAS-120] |  | 6.6 | 22 | 17.4 | 3.3 | 
3 | CCN1CCN(c2ccc(Nc3cc(N(C)C(=O)Nc4c(Cl)c(OC)cc(OC)c4Cl)ncn3)cc2)CC1 [BGJ398] |  | 7.5 | 31.9 | 11.2 | −0.8 | 
4 | C=CC(=O)N1CC[C@H](n2ncc3c(N4CC(N(C)C)C4)nc4c(F)c(-c5c(C)c(Cl)cc6[nH]ncc56)c(Cl)cc4c32)C[C@H]1CC#N [Compound 4, 2-((2S,4S)-1-acryloyl-4-(8-chloro-7-(6-chloro-5-methyl-1H-indazol-4-yl)-4-(3-(dimethylamino)azetidin-1-yl)-6-fluoro-1H-pyrazolo[4,3-c]quinolin-1-yl)piperidin-2-yl)acetonitrile] |  |  |  |  |  | Avg. Bliss Score (SW-837): −11.7; Avg. Bliss Score (SW-1573; [2]): 17; Avg. Bliss Score (Calu-1): −9.9; Avg. Bliss Score (H1792; [2]): 30; Avg. Bliss Score (H358; [2]): −3; Avg. Bliss Score (HCC-44): 4.7
5 | CN(C)C1(C)CN(c2nc3c(F)c(-c4ccc(F)c5cccnc45)c(C(F)(F)F)cc3c3c2nnn3[C@H]2CCN(C(=O)/C=C/CF)[C@H](CC#N)C2)C1 [Compound 3, 2-((2S,4S)-4-(4-(3-(dimethylamino)-3-methylazetidin-1-yl)-6-fluoro-7-(5-fluoroquinolin-8-yl)-8-(trifluoromethyl)-1H-[1,2,3]triazolo[4,5-c]quinolin-1-yl)-1-((E)-4-fluorobutenoyl)piperidin-2-yl)acetonitrile] |  |  |  |  |  | Avg. Bliss Score (SW-837): 0.9; Avg. Bliss Score (SW-1573; [2]): 18.6; Avg. Bliss Score (Calu-1): 8.7; Avg. Bliss Score (H1792; [2]): 28.5; Avg. Bliss Score (H358; [2]): 3.8; Avg. Bliss Score (HCC-44): 5.8; inhibition of LU99 cell proliferation after siRNA knockdown (LU99 cells): higher inhibition in proliferation
6 | CC(=O)N1CCC[C@@H]1c1cc2c(O[C@@H](C)[C@@H]3CCCN3C)nc3c(F)c(-c4cccc5c4C(C#N)CCC5)c(C)cc3c2n1[C@H]1[C@H]2CN[C@@H]1C2 (stereo partly shown) [Compound 6] | higher inhibition in proliferation compared to controls |  |  |  |  | 
7 | CCOc1nc2c(F)c(-c3cc(O)cc4ccccc34)c(CCC#N)cc2c2c1cc(CN1CCN(CC)CC1=O)n2[C@H]1[C@H]2CN[C@@H]1C2 [Compound 7] | higher inhibition in proliferation compared to controls |  |  |  |  | 
8 | COc1cc(OC)cc(N(CCNC(C)C)c2ccc3ncc(-c4cnn(C)c4)nc3c2)c1 [Erdafitinib] |  | 7.9 | 34.7 | 12.9 | 4.4 | 
